Patent US8226972B2, “Vaginal delivery of drugs” (FemmePharma Holding Company, Inc., priority 2001, dated 2012)
Read-outs that look alike come from different tables or passages of the source.

Tests used:
urge incontinence = conditions: cited from earlier work
bladder [1] = test: Example 3: bladder response to intra-arterial Ach (model for hyperreflexia); type: in vivo, rabbit
Experimental: (§1) 30 mature female New Zealand white rabbits (˜4 kg) were separated into five groups of six rabbits each. Intra arterial administration of Ach was used as a model for hyperreflexia. The effects on intra arterial stimulated contraction were compared with effects on micturition pressure generation.
(§2) Each rabbit was sedated with an intramuscular injection of ketamine-xylazine ((25 mg ketamine+6 mg xylazine)/kg rabbit) and anesthesia was maintained by isoflurane. After anesthesia, the right external carotid artery was cannulated for blood pressure monitoring. A polyethylene catheter (Intramedic) with an outer diameter of 0.043 inches was inserted through the rabbit's right femoral artery until it reached the lower abdominal aorta (approximately 0.5 Central Mutual above the bifurcation of the aorta). A heparizined saline (30 iu/mL) filled polyethylene catheter was used for intra-arterial administration of drugs. To facilitate the delivery of the maximum amount of drugs to the urinary bladder, the rabbit's left femoral artery was ligated.
(§3) The bladder was exposed through a midline incision, and the bladder dome was catheterized with an 8 F catheter for both the monitoring of bladder pressure and for cystometry. The bladder neck-urethra was ligated to prevent micturition or leakage through the urethra. The catheter was connected to an infusion pump (Harvard Apparatus) and a pressure tranducer. The right carotid artery was cannulated for monitoring blood pressure. Bladder pressure and blood pressure were recorded on a Grass model 7D Polygraph, and were simultaneously digitized using a Polyview A/D digital analytical system.
Cystometry was performed at 1.4 mL/min until a micturition contraction or a volume of 80 mL was obtained. After the first cystometry, Ach (10^−6 mol/kg) was injected through the intra-arterial polyethylene catheter in a volume of 0.1 ml/kg followed by three washes of 0.2 ml of heparinized saline. The blood pressure and bladder pressure responses were recorded and digitized.
After three consistent Ach tests, (i.e. responses within 20% of each other) the rabbits in the control group (Group 1) received a vaginal administration of 3 mL of gel (no oxybutynin); the rabbits in the high dose group (Group 2) received a vaginal administration of 1.5 g of oxybutynin suspended in 3 mL of gel; the rabbits in the intermediate dose group (Group 3) received 0.5 g of oxybutynin suspended in 3 mL of gel; the rabbits in the low dose group (Group 4) received a vaginal administration of 0.15 g of oxybutynin suspended in 3 mL of gel; and the rabbits in the oral dose group (Group 5) received 0.5 g of an oral preparation of oxybutynin dissolved in 3 mL of saline.
Ach was administered at 10 minute intervals for two hours, and then a second cystometry was performed. Ach administration continued at 10 minute intervals for a second two hour period, and then a final cystometry performed.
Statistical significance was determined using analysis of variance followed by Bonferroni test for individual differences. A p<0.05 was required for significance.

bladder [2] = test: Example 2: cystometry at 1.42 mL/minute after vaginal oxybutynin; type: in vivo, rabbit
From the text: (§4) 16 mature female New Zealand white rabbits were separated into two groups of eight. The rabbits in Group 1 received a high dose oxybutynin formulations; and the rabbits in Group 2 received a low dose oxybutynin formulation. For the high dose, 3 grams (g) of oxybutynin HCl were suspended in 6 g of gel (yielding a concentration of 0.5 g Oxybutynin/g gel) and 3 g of the formulation were placed in the vagina. For the low dose, 0.3 g of oxybutynin HCl were suspended in 6 g of gel (yielding a concentration of 0.05 g Oxybutynin/g gel), and 3 g of the formulation were placed in the vagina.
(§5) The bladder was exposed through a midline incision, and the bladder dome was catheterized with an 8 F catheter for both the monitoring of bladder pressure and for cystometry. The bladder neck-urethra was ligated to prevent micturition or leakage through the urethra. The catheter was connected to an infusion pump (Harvard Apparatus) and a pressure transducer.
Then, the rabbit was taken off of the isoflurane and anesthesia was maintained by ketamine-xylazine so that micturition reflexes could be observed during cystometry. After 15 minutes, the infusion pump was turned on and at an infusion rate of 1.0 mL/minute, a cystometric curve was generated. The volume at which a micturition reflex was observed was considered to be the functional capacity of the bladder. Bladder capacity and Bladder Compliance were determined. The bladder was then filled to 20 mL.
(§6) After the third Ach administration, the application of the oxybutynin containing gel was administered to the vagina and the responses to Ach were determined at 15-minute intervals for 2 hours. When the response to Ach was reduced, then the time period was extended to 4 hours. At the end of the experiment, a second cystometric curve was generated.
(§7) The protocol described in Example 1 was followed in this experiment, with the following changes. The infusion pump was turned on and, at an infusion rate of 1.42 mL/minute, a cystometric curve was generated.

bladder [3] = test: Example 1: cystometry (bladder capacity, Bladder Compliance); type: in vivo, rabbit; conditions: high dose (0.5 g/g gel) vaginal
From the text: as §4, §5
Then, the rabbit was taken off of the isoflurane and anesthesia was maintained by ketamine-xylazine so that micturition reflexes could be observed during cystometry. […] Bladder capacity and Bladder Compliance were determined. […]
After the third Ach administration, the application of the oxybutynin containing gel was administered to the vagina and the responses to Ach were determined at 15-minute intervals for 2 hours. […]

bladder [4] = test: Example 2: bladder contractile response to intra-arterial Ach; type: in vivo, rabbit
From the text: as §4
Acetylcholine (Ach), a chemical that causes the bladder muscle (detrusor) to squeeze or contract, was injected through the intra-arterial polyethylene catheter in a volume of 0.31-0.39 mL (i.e., 0.1 mL/kg of rabbit), followed by 0.2 mL of heparinized saline. Change of intravesical pressure following the administration of Ach (10^−6 mol/kg) was monitored by the pressure transducer and recorded on a Grass model 7D polygraph. A 10-minute interval passed between Ach administrations, and three flushes of normal saline, in an amount of 0.1 ml/kg of rabbit, were administered. Three responses to Ach were performed at 10-minute intervals to ensure consistent responses.
as §6, §7

blood pressure = test: Example 3: vascular (blood pressure) response to Ach; type: in vivo, rabbit
Experimental: as §1, §2, §3
Cystometry was performed at 1.4 mL/min until a micturition contraction or a volume of 80 mL was obtained. […] The blood pressure and bladder pressure responses were recorded and digitized. […]
Statistical significance was determined using analysis of variance followed by Bonferroni test for individual differences. […]

[5] = oxybutynin solution delivered by catheter (Saito)

CCN(CC)CC#CCOC(=O)C(O)(c1ccccc1)C1CCCCC1 (centres unmarked) [oxybutynin]
side effects (urge incontinence; intravesical administration (Brendler)): no side effects were observed | patients who reported improvement and became totally continent (urge incontinence; intravesical administration, eleven patients with persistent urge incontinence (Brendler)): Ten out of eleven | effectiveness in urinary incontinence (urge incontinence; [5]): effective | side effects (urge incontinence; [5]): did not experience side effects | response to Ach compared to the control response (bladder [1]; all preparations of oxybutynin): statistically significant decrease | onset of action (bladder [1]; high dose vaginal): very fast | response to Ach (bladder [1]; high dose vaginal, at 30 minutes, remained active throughout the 4 hour study): completely inhibited | response to acetylcholine (bladder [1]; highest dose): completely eliminated | response to Ach (bladder [1]; intermediate vaginal dose, reached over 90 minutes, remaining for the rest of the experiment): approximately 40 % of control | response to Ach (bladder [1]; low vaginal dose, reached over 90 minutes, remaining for the rest of the experiment): approximately 40 % of control | response to Ach (bladder [1]; oral, reached over 90 minutes, remaining for the rest of the experiment): approximately 40 % of control | Bladder Compliance (bladder [2]; high dose vaginal): significant decrease | intravesical pressure during cystometry (bladder [2]; high dose vaginal): decreased | intravesical volume at micturition (no micturition reflex up to this volume; cystometry stopped) (bladder [2]; high dose vaginal, before approximately 20 mL): > 80 mL | micturition reflex (bladder [2]; high dose vaginal, up to bladder volume of 80 mL): inhibited | Bladder Compliance (bladder [2]; low dose vaginal): decrease | intravesical pressure during cystometry (at micturition) (bladder [2]; low dose vaginal, after administration (about 15 before), FIG. 4): about 8 cm H2O | pressure at which micturition occurred (bladder [2]; low dose vaginal, after administration (about 16 before), FIG. 3): about 8 cm H2O | magnitude of the micturition reflex (micturition pressure) (bladder [2]; low dose vaginal, after administration (about 22 before)): about 10 cm H2O | intravesical volume at micturition (bladder [2]; low dose vaginal, after treatment, approximately the same as before): about 22 mL | Bladder Compliance (bladder [3]): significant decrease | bladder volume at micturition (bladder [3]): increase | contractile response to intra-arterial Ach (bladder [4]; high dose vaginal, after 4 hours): not restored | contractile response to intra-arterial Ach (bladder [4]; high dose vaginal, at 15 minutes): complete inhibition | contractile response to intra-arterial Ach (bladder [4]; low dose vaginal, at 45 minutes): decreased response | intravesical pressure response to intra-arterial Ach (bladder [4]; low dose vaginal, from 45 minutes for the remaining 2.25 hours): about 7 cm H2O | vascular response to Ach (blood pressure; any dose, vaginally delivered, entire 4 hour period): no effect | effects on the cardiovascular system (blood pressure; highest dose): only minor effects | blood pressure response to Ach (blood pressure; oral): inhibitory effects
